Assay results reported in patent publication US4076816A, “Antibiotic mixture” (priority 1974, dated 1978).
Structures can show the parent of a compound that is named as a salt.

Columns and labels:
Type in all cases: cell-based
[1] = test system: Klebsiella pneumoniae (Leo HE); assay: serial dilution test (technique of Example 1), medium with addition of 10 g of sodium chloride per liter, MIC; conditions: medium + 10 g sodium chloride per liter, compound alone
Description: (§1) A fluid medium containing:
(§2) and containing the appropriate concentrations of the compounds, or of the combinations of them was inoculated with 10^6 cells/ml organisms and incubated over night at 37° C. Minimum inhibitory concentrations (MIC) were taken as the lowest concentrations of either of the compounds alone or of a combination of both at which no visible growth occurred.

[2] = test system: Escherichia coli (Leo HA2); assay: as above; conditions: medium + 10 g sodium chloride per liter, compound alone
Description: as §1, §2

[3] = test system: Salmonella typhimurium (Leo HL2); assay: as above; conditions: Salmonella enterica, medium + 10 g sodium chloride per liter, compound alone
Description: as §1, §2

Haemophilus influenzae = assay: combined activity in vitro, serial dilutions in chocolate agar plates arranged in form of a chess board, MIC; conditions: compound alone
Description: Combined activity of FL 1060 and trimethoprim against Haemophilus influenzae in vitro. Serial dilutions of FL 1060 and trimethoprim were performed in "chocolate agar"^x) plates arranged in form of a chess board. Inoculum: 3.5 μl drops containing about 10^7 cells/ml. Incubation: overnight at 36° C. ^x) Caseinhydrolysate (pancreatic) 1.3%, dextrose 0.085%, sodium chloride 0.21%, 1-cystine 0.004%, agar (Oxoid No. 1) 0.6% in distilled water, pH 7.1 after autoclaving, horse blood (defibriated) 5%, yeast extract (Difco) 1.3% (membrane filtered) added at 80° C.

[4] = test system: Escherichia coli (strain Leo HA2); assay: in vitro serial dilution test, minimum inhibitory concentration; conditions: 10^6 cells/ml, over night at 37° C, compound alone
Description: The in vitro activity of FL 1060, trimethoprim, and combinations of the two compounds against Escherichia coli (strain Leo HA2) was determined in a serial dilution test. […] Minimum inhibitory concentrations (MIC) were taken as the lowest concentrations of either of the compounds alone or of a combination of both at which no visible growth occurred.

[5] = strain IX14, overnight at 36° C
[6] = strain IX15, overnight at 36° C

SMILES	MIC [1] [µg/mL]	MIC [2] [µg/mL]	MIC [3] [µg/mL]	MIC (Haemophilus influenzae; strain IX5, overnight at 36° C) [µg/mL]	MIC (Haemophilus influenzae; strain IX6, overnight at 36° C) [µg/mL]	MIC (Haemophilus influenzae; [5]) [µg/mL]	MIC (Haemophilus influenzae; [6]) [µg/mL]	MIC [4] [µg/mL]
COc1cc(Cc2cnc(N)nc2N)cc(OC)c1OC [Trimethoprim, 2,4-diamino-5(3,4,5-trimethoxybenzyl)-pyrimidine]	1.6	> 50	> 100	1	3.2	> 100	> 100	100
CC1(C)S[C@@H]2[C@H](N=CN3CCCCCC3)C(=O)N2[C@H]1C(=O)O [FL 1060, 6-[(hexahydro-1H-azepin-1-yl)-methyleneamino]-penicillanic acid, hydrochloride, dihydrate]	0.5	50	> 100	> 100	> 100	> 100	> 100	0.016
